# Reference: US8445474B2 (Knopp Neurosciences, Inc., priority 2006, dated 2013)
# Where two headings read alike, the source gives them in different places.
# Key:
# [1] = Dissolution of exploratory combination capsules in simulated gastric fluid (SGF), chiral HPLC; type: physicochemical; conditions: for Average Concentrations of the enantiomer, Experiments SGF (1) and SGF (2) / Concentration of the enantiomer in SGF (1) Vessel / Concentration of the enantiomer in SGF (2) Vessel: combination capsule in 10 mL SGF pH 1.2
# Procedure: Drug Formulation. […] Normal phase, chiral HPLC was used for monitoring the release of R(+) pramipexole and S(−) pramipexole in simulated gastric fluid (SGF).
# Dissolution Study. SGF (pH=1.2) was prepared by diluting 1 g of sodium chloride and 7 mL of concentrated HCl to 1 L with HPLC grade water. The dissolution experiment was run as follows: an exploratory combination capsule was placed in 10 mL of SGF and shaken under ambient conditions at 600 RPM for 60 minutes. Aliquots of 100 μL were pulled from the same sample vessel at various time points. The 100 μL samples of SGF solution were evaporated using a nitrogen bleed and heat and the residues were dissolved in the HPLC diluent and filtered through 0.45 μm syringe filters. […] This experiment was performed in duplicate (experiment numbers SGF (1) (see Table 4) and SGF (2) (see Table 5)) and the results are also provided in average values (see Table 6). The tables and figures below summarize the results from these experiments.
# [2] = test system: rodents; conditions: single oral dose, and above; cited from earlier work
# [3] = in vivo; conditions: male, beagle, dog
# Procedure: (§1) Doses were administered orally by gavage and clinical observations were taken continuously following dosing: hourly for the first four hours, and then twice daily cage-side observations for the duration of the inter-dose or post-dose interval. Observations were made of clinical signs, mortality, injury and availability of food and water. Animals were fasted for 24 hr prior to dosing. Dogs in each group were exposed to only one drug, or the combination; each dose was administered only once, with a subsequent dose administered after a recovery period of 4 days.
# [4] = test system: monkeys; conditions: single oral dose; cited from earlier work
# [5] = test system: dogs; conditions: single oral dose, and above; cited from earlier work
# [6] = test system: male beagle dogs
# Procedure: as §1
# [7] = test system: human subjects; conditions: cited from earlier work
# [8] = test system: rodents
# [9] = biological target: human cloned dopamine receptor D5 (Homo sapiens, UniProt P21918); conditions: historic data; cited from earlier work
# [10] = 4320 minutes, stored benchtop in clear vial
# [11] = male, beagle, dog, in vivo, 1 study day
# [12] = male, beagle, dog, in vivo, 8 study day
# [13] = non-naïve male beagle dogs, single oral dose
# Chain of human cloned dopamine receptor D5 (P21918 whole entry): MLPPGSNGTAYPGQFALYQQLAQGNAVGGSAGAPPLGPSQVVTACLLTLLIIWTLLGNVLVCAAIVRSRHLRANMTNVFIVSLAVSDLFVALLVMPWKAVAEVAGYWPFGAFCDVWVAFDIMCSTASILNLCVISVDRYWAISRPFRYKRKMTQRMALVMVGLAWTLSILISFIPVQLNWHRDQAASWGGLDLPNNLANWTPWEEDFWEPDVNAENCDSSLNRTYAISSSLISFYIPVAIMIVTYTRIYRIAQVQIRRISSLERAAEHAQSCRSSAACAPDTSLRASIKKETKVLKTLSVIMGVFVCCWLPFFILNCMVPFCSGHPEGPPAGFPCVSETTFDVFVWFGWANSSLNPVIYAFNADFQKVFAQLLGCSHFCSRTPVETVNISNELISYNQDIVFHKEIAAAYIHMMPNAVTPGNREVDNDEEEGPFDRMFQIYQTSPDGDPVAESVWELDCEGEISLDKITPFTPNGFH
smiles,measurement,setting,value
CCCN[C@H]1CCc2nc(N)sc2C1 [S(−) pramipexole],"Average Concentrations of the enantiomer, Experiments SGF (1) and SGF (2)",[1]; 3 minutes,0 mg/mL
same,Concentration of the enantiomer in SGF (1) Vessel,[1]; 3 minutes,0 ng/mL
same,Concentration of the enantiomer in SGF (2) Vessel,[1]; 3 minutes,0 ng/mL
same,"Average Concentrations of the enantiomer, Experiments SGF (1) and SGF (2)",[1]; 4 minutes,0 mg/mL
same,Concentration of the enantiomer in SGF (1) Vessel,[1]; 4 minutes,0 ng/mL
same,Concentration of the enantiomer in SGF (2) Vessel,[1]; 4 minutes,0 ng/mL
same,"Average Concentrations of the enantiomer, Experiments SGF (1) and SGF (2)",[1]; 6 minutes,0 mg/mL
same,Concentration of the enantiomer in SGF (1) Vessel,[1]; 6 minutes,0 ng/mL
same,Concentration of the enantiomer in SGF (2) Vessel,[1]; 6 minutes,0 ng/mL
same,"Average Concentrations of the enantiomer, Experiments SGF (1) and SGF (2)",[1]; 8 minutes,0 mg/mL
same,Concentration of the enantiomer in SGF (1) Vessel,[1]; 8 minutes,0 ng/mL
same,Concentration of the enantiomer in SGF (2) Vessel,[1]; 8 minutes,0 ng/mL
same,"Average Concentrations of the enantiomer, Experiments SGF (1) and SGF (2)",[1]; 10 minutes,0.003489 mg/mL
same,Concentration of the enantiomer in SGF (1) Vessel,[1]; 10 minutes,6978 ng/mL
same,Concentration of the enantiomer in SGF (2) Vessel,[1]; 10 minutes,0 ng/mL
same,"Average Concentrations of the enantiomer, Experiments SGF (1) and SGF (2)",[1]; 11 minutes,0.00738 mg/mL
same,Concentration of the enantiomer in SGF (1) Vessel,[1]; 11 minutes,8956 ng/mL
same,Concentration of the enantiomer in SGF (2) Vessel,[1]; 11 minutes,5803 ng/mL
same,"Average Concentrations of the enantiomer, Experiments SGF (1) and SGF (2)",[1]; 12 minutes,0.009645 mg/mL
same,Concentration of the enantiomer in SGF (1) Vessel,[1]; 12 minutes,10830 ng/mL
same,Concentration of the enantiomer in SGF (2) Vessel,[1]; 12 minutes,8460 ng/mL
same,"Average Concentrations of the enantiomer, Experiments SGF (1) and SGF (2)",[1]; 14 minutes,0.015 mg/mL
same,Concentration of the enantiomer in SGF (1) Vessel,[1]; 14 minutes,15340 ng/mL
same,Concentration of the enantiomer in SGF (2) Vessel,[1]; 14 minutes,14660 ng/mL
same,"Average Concentrations of the enantiomer, Experiments SGF (1) and SGF (2)",[1]; 15 minutes,0.01769 mg/mL
same,Concentration of the enantiomer in SGF (1) Vessel,[1]; 15 minutes,17690 ng/mL
same,Concentration of the enantiomer in SGF (2) Vessel,[1]; 15 minutes,17700 ng/mL
same,"Average Concentrations of the enantiomer, Experiments SGF (1) and SGF (2)",[1]; 17 minutes,0.02176 mg/mL
same,Concentration of the enantiomer in SGF (1) Vessel,[1]; 17 minutes,21570 ng/mL
same,Concentration of the enantiomer in SGF (2) Vessel,[1]; 17 minutes,21960 ng/mL
same,"Average Concentrations of the enantiomer, Experiments SGF (1) and SGF (2)",[1]; 18 minutes,0.02294 mg/mL
same,Concentration of the enantiomer in SGF (1) Vessel,[1]; 18 minutes,22230 ng/mL
same,Concentration of the enantiomer in SGF (2) Vessel,[1]; 18 minutes,23650 ng/mL
same,"Average Concentrations of the enantiomer, Experiments SGF (1) and SGF (2)",[1]; 20 minutes,0.028 mg/mL
same,Concentration of the enantiomer in SGF (1) Vessel,[1]; 20 minutes,27330 ng/mL
same,Concentration of the enantiomer in SGF (2) Vessel,[1]; 20 minutes,28670 ng/mL
same,"Average Concentrations of the enantiomer, Experiments SGF (1) and SGF (2)",[1]; 25 minutes,0.03742 mg/mL
same,Concentration of the enantiomer in SGF (1) Vessel,[1]; 25 minutes,37640 ng/mL
same,Concentration of the enantiomer in SGF (2) Vessel,[1]; 25 minutes,37210 ng/mL
same,"Average Concentrations of the enantiomer, Experiments SGF (1) and SGF (2)",[1]; 30 minutes,0.04566 mg/mL
same,Concentration of the enantiomer in SGF (1) Vessel,[1]; 30 minutes,48900 ng/mL
same,Concentration of the enantiomer in SGF (2) Vessel,[1]; 30 minutes,42420 ng/mL
same,"Average Concentrations of the enantiomer, Experiments SGF (1) and SGF (2)",[1]; 60 minutes,0.05654 mg/mL
same,Concentration of the enantiomer in SGF (1) Vessel,[1]; 60 minutes,51970 ng/mL
same,Concentration of the enantiomer in SGF (2) Vessel,[1]; 60 minutes,61100 ng/mL
same,"Average Concentrations of the enantiomer, Experiments SGF (1) and SGF (2)",[1]; [10],0.09309 mg/mL
same,Concentration of the enantiomer in SGF (1) Vessel,[1]; [10],93670 ng/mL
same,Concentration of the enantiomer in SGF (2) Vessel,[1]; [10],92500 ng/mL
same,course of release from the capsule,"[1]; SGF pH 1.2, 60 minutes",did not go to completion after one hour
same,doses at which deaths occurred,[2],70000 to 105000 µg/kg
same,MTD at 4 days,[3],4.2 µg/kg
same,dose at which major excitation was displayed,[4],3500 µg/kg
same,dose at which vomiting occurred,[5],≥ 0.7 µg/kg
same,human dose equivalent to dog MTD,[6]; 70 kg individual,0.30 mg
same,human dose equivalent to dog NOAEL,[6]; 70 kg individual,0.05 mg
same,human dose equivalent to dog NOAEL,[6]; human equivalent,0.7 µg/kg
same,Feces mucoid (animals affected/total),"[6]; male, beagle, dog, in vivo",0/4
same,Feces soft (animals affected/total),"[6]; male, beagle, dog, in vivo",0/4
same,Feces watery (animals affected/total),"[6]; male, beagle, dog, in vivo",0/4
same,Lacrimation (animals affected/total),"[6]; male, beagle, dog, in vivo",0/4
same,Pupils dilated (animals affected/total),"[6]; male, beagle, dog, in vivo",0/4
same,Skin warm to touch (animals affected/total),"[6]; male, beagle, dog, in vivo",0/4
same,Activity decreased (animals affected/total),[6]; [11],3/4
same,Convulsions-clonic (animals affected/total),[6]; [11],0/4
same,Emesis (animals affected/total),[6]; [11],3/4
same,Salivation (animals affected/total),[6]; [11],0/4
same,Tremors (animals affected/total),[6]; [11],1/4
same,Activity decreased (animals affected/total),[6]; [12],0/4
same,Emesis (animals affected/total),[6]; [12],0/4
same,Tremors (animals affected/total),[6]; [12],0/4
same,MTD,[6]; [13],7.5 µg/kg
same,NOAEL,[6]; [13],1.25 µg/kg
same,dose shown to cause somnolence,[7],1.5 mg
same,"initial, single doses not tolerated",[7],greater than 0.20 milligrams
same,human dose equivalent to rodent lethal dose,[8]; human equivalent,7000 to 12000 µg/kg
same,human dose equivalent to rodent lethal dose,"[8]; rodents, in vivo",500 to 850 mg
same,Ki,[9],> 50 µM
